Experimental findings from patent US20250320496A1, “MODULATION OF ABCB11 GENE TRANSCRIPTION USING ANTISENSE OLIGONUCLEOTIDES TARGETING REGULATORY RNAS” (CAMP4 Therapeutics Corporation, priority 2022, published 2025) are described below.

Strand notation (5' to 3'): a small letter for the sugar, then the base; units joined by * are phosphorothioate-linked, units joined directly phosphodiester-linked; [ ] holds rarer units or linkages, { } end groups; capitals alone tell only the bases. e = 2'-O-(2-methoxyethyl) (MOE); l = locked nucleic acid (LNA); [5mC] = 5-methylcytosine

The first series relates to human ABCB11 mRNA. Briefly: ASO treatment of primary human hepatocytes (PHH), ABCB11 mRNA by RT-qPCR normalized to B2M. Format: cell-based. To be noted: PHHs treated for two days, collected Day 2 to Day 7; result on Day 4. More on the design: ABCB11 mRNA, dose titration: unit of the concentration uncertain. In short, it runs like this:
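ABCB11 mRNA was quantified by Taqman RT-qPCR relative to B2M and expressed as fold over untreated cells. Cells were cryopreserved primary human hepatocytes given ASO in Matrigel-supplemented medium 4 h after plating, at 1.25, 2.5, 5 or 10 μM (5 μM for screening), and harvested after 72 hrs.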
Turning to “CO-4535: ASO targeting eRNA RR64 (RR64_v2) of human ABCB11 (antisense eT*eG*eG*e[5mC]*eG*eT*eT*eA*eT*eT*eA*eA*eT*eT*e[5mC]*eT*eA*e[5mC]*eA*eG)”, the “ABCB11 mRNA, time course” value is “strong ABCB11 and CYP7A1 mRNA upregulation”.

The series is the same for the next values; noted with them: PHHs, Day 4 after ASO treatment (FIG. 5A).
On to “CO-4513: ASO targeting a downstream regRNA from enhancer RR62_v2 (antisense eG*eT*eG*eA*eG*eG*e[5mC]*eA*eT*e[5mC]*eA*eG*eG*eT*eA*eA*eG*eT*eT*e[5mC])”, for which the “ABCB11 mRNA expression, dose response” value is recorded as “dose-responsive increase”. Still for that read-out and setting: under “CO-4535: ASO targeting eRNA RR64 (RR64_v2) of human ABCB11 (antisense eT*eG*eG*e[5mC]*eG*eT*eT*eA*eT*eT*eA*eA*eT*eT*e[5mC]*eT*eA*e[5mC]*eA*eG)” stands “dose-responsive increase”.

The same series, now with this note: PHHs; CO-3986 and CO-4529 tested at 2.5 (unit uncertain), 5 μM, and 10 μM.
On to “CO-4535: ASO targeting eRNA RR64 (RR64_v2) of human ABCB11 (antisense eT*eG*eG*e[5mC]*eG*eT*eT*eA*eT*eT*eA*eA*eT*eT*e[5mC]*eT*eA*e[5mC]*eA*eG)”, for which the “ABCB11 mRNA, dose titration” value is given as “dose-dependent increase”.

Still in this series, the particulars now being: primary human hepatocytes, 5 μM ASO with PO-modifications, normalized to untreated hepatocytes.
“CO-11224 (antisense eG*eT*lGeGeAlGe[5mC]*eA*lA*eA*e[5mC]*lT*eA*eGlGe[5mC]eAl[5mC]*eT*eG)”: the “ABCB11 FC mRNA (5 μM ASO vs. untreated)” value is 1.88 fold change. On the same count and under the same terms, the value for “CO-11225 (antisense eG*eTlGeGeAlGe[5mC]*eA*lA*eA*e[5mC]*lT*eA*eGlGe[5mC]eAl[5mC]eT*eG)” was 1.66 fold change. In the case of “CO-11226 (antisense eG*eT*lGeG*eA*lG*e[5mC]*eAlA*eA*e[5mC]*lT*eAeG*lG*e[5mC]*eA*l[5mC]eT*eG)”, the “ABCB11 FC mRNA (5 μM ASO vs. untreated)” value came out at 2.31 fold change. The same measure, in the same setting: under “CO-11227 (antisense eG*eT*lG*eGeA*lG*e[5mC]*eAlA*eA*e[5mC]*lTeA*eG*lG*e[5mC]eA*l[5mC]*eT*eG)” stands 2.11 fold change; under “CO-11228 (antisense eG*eT*lG*eG*eAlG*e[5mC]*eA*lAeA*e[5mC]*lT*eAeG*lG*e[5mC]*eAl[5mC]*eT*eG)”, 1.99 fold change.

For “CO-11229 (antisense eG*eTlG*eG*eA*lGe[5mC]*eA*lA*eAe[5mC]*lT*eA*eGlG*e[5mC]*eA*l[5mC]eT*eG)”, the “ABCB11 FC mRNA (5 μM ASO vs. untreated)” value is 2.83 fold change.

As to “CO-11230 (antisense eG*eTlG*eG*eAlG*e[5mC]*eAlA*eA*e[5mC]lT*eA*eGlG*e[5mC]*eAl[5mC]*eT*eG)”, the “ABCB11 FC mRNA (5 μM ASO vs. untreated)” value came out at 1.63 fold change. Same read-out and setting: under “CO-11231 (antisense eG*eT*lGeG*eA*lGe[5mC]*eA*lAeA*e[5mC]*lTeA*eG*lGe[5mC]*eA*l[5mC]eT*eG)” stands 1.85 fold change; under “CO-11232 (antisense eG*eT*lGeG*eAlG*e[5mC]eA*lAeA*e[5mC]lT*eAeG*lGe[5mC]*eAl[5mC]*eT*eG)”, 1.72 fold change. Same read-out and setting: under “CO-11233 (antisense eG*eTlG*eGeA*lGe[5mC]*eAlA*eAe[5mC]*lTeA*eGlG*e[5mC]eA*l[5mC]eT*eG)” stands 1.60 fold change; under “CO-11234 (antisense eG*eT*eG*eG*lAeGe[5mC]*eA*eA*lA*e[5mC]*eT*eA*eGlGe[5mC]*eA*e[5mC]*eT*eG)”, 1.55 fold change; under “CO-11235 (antisense eG*eT*eG*eGlAeGe[5mC]*eA*eA*lA*e[5mC]*eT*eA*eGlGe[5mC]eA*e[5mC]*eT*eG)”, 1.47 fold change. “CO-11236 (antisense eG*eT*eGeGlAeGe[5mC]*eA*eA*lA*e[5mC]*eT*eA*eGlGe[5mC]eAe[5mC]*eT*eG)”: the “ABCB11 FC mRNA (5 μM ASO vs. untreated)” value is 1.60 fold change.

“CO-11237 (antisense eG*eTeGeGlAeGe[5mC]*eA*eA*lA*e[5mC]*eT*eA*eGlGe[5mC]eAe[5mC]eT*eG)”: the “ABCB11 FC mRNA (5 μM ASO vs. untreated)” value was found to be 1.56 fold change. Still for that read-out and setting: the value for “CO-11238 (antisense eG*eT*eGeG*lA*eG*e[5mC]*eAeA*lA*e[5mC]*eT*eAeG*lG*e[5mC]*eA*e[5mC]eT*eG)” was 1.26 fold change; that for “CO-11239 (antisense eG*eT*eG*eGlA*eG*e[5mC]*eAeA*lA*e[5mC]*eTeA*eG*lG*e[5mC]eA*e[5mC]*eT*eG)” was 1.53 fold change. Turning to “CO-11240 (antisense eG*eT*eG*eG*lAeG*e[5mC]*eA*eAlA*e[5mC]*eT*eAeG*lG*e[5mC]*eAe[5mC]*eT*eG)”, the “ABCB11 FC mRNA (5 μM ASO vs. untreated)” value is recorded as 1.31 fold change. Same read-out and setting: the value for “CO-11241 (antisense eG*eTeG*eG*lA*eGe[5mC]*eA*eA*lAe[5mC]*eT*eA*eGlG*e[5mC]*eA*e[5mC]eT*eG)” was 1.71 fold change; that for “CO-11242 (antisense eG*eTeG*eG*lAeG*e[5mC]*eAeA*lA*e[5mC]eT*eA*eGlG*e[5mC]*eAe[5mC]*eT*eG)” was 1.49 fold change. On the same count and under the same terms, under “CO-11243 (antisense eG*eT*eGeG*lA*eGe[5mC]*eA*eAlA*e[5mC]*eTeA*eG*lGe[5mC]*eA*e[5mC]eT*eG)” stands 1.71 fold change; under “CO-11244 (antisense eG*eT*eGeG*lAeG*e[5mC]eA*eAlA*e[5mC]eT*eAeG*lGe[5mC]*eAe[5mC]*eT*eG)”, 1.29 fold change; under “CO-11245 (antisense eG*eTeG*eGlA*eGe[5mC]*eAeA*lAe[5mC]*eTeA*eGlG*e[5mC]eA*e[5mC]eT*eG)”, 1.59 fold change.

With “CO-12745 (antisense eG*eT*eG*eA*eGeGe[5mC]*eA*eT*e[5mC]*eA*eG*eG*eTeAeA*eG*eT*eT*e[5mC])”, the “ABCB11 FC mRNA (5 μM ASO vs. untreated)” value worked out at 0.92 fold change. On the same count and under the same terms, the value for “CO-12746 (antisense eG*eT*eG*eAeGeGe[5mC]*eA*eT*e[5mC]*eA*eG*eG*eTeAeAeG*eT*eT*e[5mC])” was 1.09 fold change. With “CO-12747 (antisense eG*eT*eGeAeGeGe[5mC]*eA*eT*e[5mC]*eA*eG*eG*eTeAeAeGeT*eT*e[5mC])”, the “ABCB11 FC mRNA (5 μM ASO vs. untreated)” value is listed as 0.97 fold change. The same measure, in the same setting: the value for “CO-12748 (antisense eG*eTeGeAeGeGe[5mC]*eA*eT*e[5mC]*eA*eG*eG*eTeAeAeGeTeT*e[5mC])” was 0.91 fold change; that for “CO-12749 (antisense eG*eT*eGeA*eG*eG*e[5mC]*eAeT*e[5mC]*eA*eG*eGeT*eA*eA*eG*eTeT*e[5mC])” was 0.95 fold change; that for “CO-12750 (antisense eG*eT*eG*eAeG*eG*e[5mC]*eAeT*e[5mC]*eA*eGeG*eT*eA*eAeG*eT*eT*e[5mC])” was 1.39 fold change. As for “CO-12751 (antisense eG*eT*eG*eA*eGeG*e[5mC]*eA*eTe[5mC]*eA*eG*eGeT*eA*eA*eGeT*eT*e[5mC])”, the “ABCB11 FC mRNA (5 μM ASO vs. untreated)” value was 0.93 fold change.

Turning to “CO-12752 (antisense eG*eTeG*eA*eG*eGe[5mC]*eA*eT*e[5mC]eA*eG*eG*eTeA*eA*eG*eTeT*e[5mC])”, the “ABCB11 FC mRNA (5 μM ASO vs. untreated)” value amounted to 0.99 fold change.

On to “CO-12753 (antisense eG*eTeG*eA*eGeG*e[5mC]*eAeT*e[5mC]*eAeG*eG*eTeA*eA*eGeT*eT*e[5mC])”, for which the “ABCB11 FC mRNA (5 μM ASO vs. untreated)” value turned out to be 1.03 fold change. Still for that read-out and setting: the value for “CO-12754 (antisense eG*eT*eGeA*eG*eGe[5mC]*eA*eTe[5mC]*eA*eGeG*eT*eAeA*eG*eTeT*e[5mC])” was 1.04 fold change; that for “CO-12755 (antisense eG*eT*eGeA*eGeG*e[5mC]eA*eTe[5mC]*eAeG*eGeT*eAeA*eGeT*eT*e[5mC])” was 0.99 fold change. The same measure, in the same setting: under “CO-12756 (antisense eG*eTeG*eAeG*eGe[5mC]*eAeT*e[5mC]eA*eGeG*eTeA*eAeG*eTeT*e[5mC])” stands 1.33 fold change.

The series is the same for the next values; noted with them: primary human hepatocytes, 5 μM ASO, normalized to untreated PHHs (UNT).
Take “CO-4513: ASO targeting a downstream regRNA from enhancer RR62_v2 (antisense eG*eT*eG*eA*eG*eG*e[5mC]*eA*eT*e[5mC]*eA*eG*eG*eT*eA*eA*eG*eT*eT*e[5mC])”: the “ABCB11 mRNA FC (5 μM ASO vs. UNT)” value amounted to 1.122 fold change.

For the next series, the system named is CYP7A1 mRNA. Briefly: ASO treatment of primary human hepatocytes (PHH), CYP7A1 mRNA by RT-qPCR normalized to B2M. Format: cell-based. To be noted: PHHs (FIG. 3B). The method, then: Primary human hepatocytes (PHH) were thawed using Lonza Human Cryopreserved Hepatocyte Thawing Medium and plated in 96-well collagen-coated plates (5.5-6.0×10^4 cells per well). Four hours later, the media was replaced with sterile-filtered QualGro™ Hepatocyte Culture Medium (BioIVT) containing antibiotic supplement, 0.3 mg/ml Matrigel® matrix (Corning®), and ASO at the desired concentration (e.g., 1.25 μM, 2.5 μM, 5 μM, or 10 μM). […] Plates were frozen at-80° C. during cell lysis. After thawing, total RNA was isolated using the Qiagen RNEasy kit as instructed by manufacturer. cDNA (random-primed) was synthesized from 10 μl of RNA using the LifeTech High Capacity cDNA Reverse Transcription kit. 2 μl of cDNA was used for reverse transcription-quantitative PCR (RT-qPCR) analyses using standard Taqman” reagents from Applied Biosystems™ to measure ABCB11 and CYP7A1 gene expression. Gene expression data was normalized to the housekeeper gene, beta-2-microglobulin (B2M).
ASOs targeting ABCB11 regRNA enhance bile acid efflux in vitro. Levels of cholesterol 7 alpha-hydroxylase (CYP7A1) mRNA (or the enzymatic activity of its protein) can be used to track changes in bile acid synthesis in the liver since the CYP7A1 protein is the first and rate-limiting step in the conversion of cholesterol to bile acids (see, e.g., Chiang and Ferrel (2020) Liver Res. 4 (2): 47-63). […] Conversely, when bile acid levels reach high levels, this gene is actively down regulated. These changes are mediated by farnesoid X receptor (FXR), a sensor of bile acid levels, and the master regulator of intracellular bile acid concentrations. CYP7A1 mRNA can therefore be used as a surrogate for monitoring changes in hepatic bile acids in response to ASO treatment. Accordingly, an ASO that successfully increases ABCB11 expression would be expected to promote increased bile acid efflux, thus reducing bile acid levels in the cell. In a wild-type (non-disease) setting, this reduction promotes a compensatory increase in CYP7A1 to restore normal levels.
Consider “CO-4535: ASO targeting eRNA RR64 (RR64_v2) of human ABCB11 (antisense eT*eG*eG*e[5mC]*eG*eT*eT*eA*eT*eT*eA*eA*eT*eT*e[5mC]*eT*eA*e[5mC]*eA*eG)”, for which the “expression of CYP7A1 mRNA, dose response” value is “increased expression of CYP7A1 mRNA in a dose-dependent manner”.

The series is the same for the next values; noted with them: PHHs treated for two days, collected Day 2 to Day 7; result on Day 4.
As to “CO-4535: ASO targeting eRNA RR64 (RR64_v2) of human ABCB11 (antisense eT*eG*eG*e[5mC]*eG*eT*eT*eA*eT*eT*eA*eA*eT*eT*e[5mC]*eT*eA*e[5mC]*eA*eG)”, the “CYP7A1 mRNA, time course” value is “strong ABCB11 and CYP7A1 mRNA upregulation”.

The same series, now with this note: PHHs, Day 4, relative to B2M (FIG. 5B).
For “CO-4513: ASO targeting a downstream regRNA from enhancer RR62_v2 (antisense eG*eT*eG*eA*eG*eG*e[5mC]*eA*eT*e[5mC]*eA*eG*eG*eT*eA*eA*eG*eT*eT*e[5mC])”, the “CYP7A1 mRNA levels, dose response” value is “dose-responsive increases”. The same measure, in the same setting: under “CO-4535: ASO targeting eRNA RR64 (RR64_v2) of human ABCB11 (antisense eT*eG*eG*e[5mC]*eG*eT*eT*eA*eT*eT*eA*eA*eT*eT*e[5mC]*eT*eA*e[5mC]*eA*eG)” stands “dose-responsive increases”.
